Results: patent US7208511B2, “Microbicidal composition” (Rohm and Haas Company, priority 2003, dated 2007)

What was measured:
Mixed Bacteria [1] = experiment: Speed of Kill test in TSB; assay type: cell-based; conditions: for Minimum Effective Concentration ALONE: 5-log reduction criteria, no end point measured, value is 2× the highest level tested (Lazonby)
Excerpt: (§1) One measure of synergism is the industrially accepted method described by Kull, F. C.; Eisman, P. C.; Sylwestrowicz, H. D. and Mayer, R. L., in Applied Microbiology 9:538–541 (1961), using the ratio determined by the formula: Qa/QA+Qb/QB=Synergy Index (“SI”) wherein: • QA=concentration of compound A (first component) in ppm, acting alone, which produced an end point (MIC of Compound A). • Qa=concentration of compound A in ppm, in the mixture, which produced an end point. • QB=concentration of compound B (second component) in ppm, acting alone, which produced an end point (MIC of Compound B). • Qb=concentration of compound B in ppm, in the mixture, which produced an end point.
(§2) When the sum of Qa/QA and Qb/QB is greater than one, antagonism is indicated. […] The lower the SI, the greater the synergy shown by that particular mixture. The minimum inhibitory concentration (MIC) of a microbicide is the lowest concentration tested under a specific set of conditions that prevents the growth of added microorganisms.
To evaluate “Speed of Kill” an aliquot of 30 g of pH 8 TSB was dispensed in sterile 2 oz (60 mL) jars. Biocides stock solution was added into each jar to achieve the final concentration. The test samples were inoculated with 0.3 ml of mixed bacterial inoculum (resulting in 10^6/ml bacteria per ml of test solution). Samples were then placed in a shaker water bath at 30° C. Bacterial growth was monitored via the microtiter MPN method using the BECKMAN AUTOMATIC 2000 Workstation after 30 min, 1, 4, 24, 48, 72 hours and again 6–7 days contact time. The microtiter plates were incubated at 30° C. for 2 days.
(§3) In each test, First Component (A) was MI and the Second Component (B) was DBNPA. “NG” means that no growth was observed.

Mixed Bacteria [2] = experiment: Minimum Inhibitory Concentration (MIC) synergy test, microtiter plate; assay type: cell-based; conditions: after 24 hours at 30° C.
Excerpt: as §1, §2
Synergy tests were conducted using standard microtiter plate assays with media designed for optimal growth of the test microorganism. […] High resolution MICs were determined by adding varying amounts of microbicide to one column of a microtitre plate and doing subsequent ten-fold dilutions using an automated liquid handling system to obtain a series of endpoints ranging from 2 ppm to 10,000 ppm active ingredient. The combinations of the present invention were tested against three bacteria, Pseudomonas aeruginosa (P. aeruginosa —ATCC #15442), Enterobacter aerogenes (ATCC #13048), and Kiebsiella pneumoniae (ATCC #13883). The bacteria were used at a concentration of about 10^8 bacteria per mL. These microorganisms are representative of natural contaminants in many consumer and industrial applications. The plates were visually evaluated for microbial growth (turbidity) to determine the MIC after various incubation times at 30° C.
as §3

Structure (SMILES): N#CC(Br)(Br)C(N)=O [DBNPA, 2,2-dibromo-3-nitrilopropionamide]
- Minimum Effective Concentration ALONE (Mixed Bacteria [1]; 24 hr): 46 ppm AI
- Minimum Effective Concentration ALONE (Mixed Bacteria [1]; 48 hr): 46 ppm AI
- Minimum Effective Concentration ALONE (Mixed Bacteria [1]; 72 hr): 46 ppm AI
- CFU/ml Bacteria Log Reduction vs Control (Mixed Bacteria [1]; DBNPA 1 ppm AI alone, 30 min @ 30° C.): 0.6 log
- CFU/ml Bacteria Log Reduction vs Control (Mixed Bacteria [1]; DBNPA 1 ppm AI alone, 1 hr @ 30° C.): −0.6 log
- CFU/ml Bacteria Log Reduction vs Control (Mixed Bacteria [1]; DBNPA 1 ppm AI alone, 4 hr @ 30° C.): −1.0 log
- CFU/ml Bacteria Log Reduction vs Control (Mixed Bacteria [1]; DBNPA 1 ppm AI alone, 24 hr @ 30° C.): −2.6 log
- CFU/ml Bacteria Log Reduction vs Control (Mixed Bacteria [1]; DBNPA 2 ppm AI alone, 30 min @ 30° C.): −0.1 log
- CFU/ml Bacteria Log Reduction vs Control (Mixed Bacteria [1]; DBNPA 2 ppm AI alone, 1 hr @ 30° C.): −0.3 log
- CFU/ml Bacteria Log Reduction vs Control (Mixed Bacteria [1]; DBNPA 2 ppm AI alone, 4 hr @ 30° C.): −0.8 log
- CFU/ml Bacteria Log Reduction vs Control (Mixed Bacteria [1]; DBNPA 2 ppm AI alone, 24 hr @ 30° C.): −1.4 log
- CFU/ml Bacteria Log Reduction vs Control (Mixed Bacteria [1]; DBNPA 5 ppm AI alone, 30 min @ 30° C.): 0.4 log
- CFU/ml Bacteria Log Reduction vs Control (Mixed Bacteria [1]; DBNPA 5 ppm AI alone, 1 hr @ 30° C.): −0.3 log
- CFU/ml Bacteria Log Reduction vs Control (Mixed Bacteria [1]; DBNPA 5 ppm AI alone, 4 hr @ 30° C.): −0.8 log
- CFU/ml Bacteria Log Reduction vs Control (Mixed Bacteria [1]; DBNPA 5 ppm AI alone, 24 hr @ 30° C.): −1.6 log
- CFU/ml Bacteria Log Reduction vs Control (Mixed Bacteria [1]; DBNPA 9 ppm AI alone, 30 min @ 30° C.): 0.4 log
- CFU/ml Bacteria Log Reduction vs Control (Mixed Bacteria [1]; DBNPA 9 ppm AI alone, 1 hr @ 30° C.): 0.0 log
- CFU/ml Bacteria Log Reduction vs Control (Mixed Bacteria [1]; DBNPA 9 ppm AI alone, 4 hr @ 30° C.): −1.0 log
- CFU/ml Bacteria Log Reduction vs Control (Mixed Bacteria [1]; DBNPA 9 ppm AI alone, 24 hr @ 30° C.): −2.0 log
- CFU/ml Bacteria Log Reduction vs Control (Mixed Bacteria [1]; DBNPA 23 ppm AI alone, 30 min @ 30° C.): 0.4 log
- CFU/ml Bacteria Log Reduction vs Control (Mixed Bacteria [1]; DBNPA 23 ppm AI alone, 1 hr @ 30° C.): 0.2 log
- CFU/ml Bacteria Log Reduction vs Control (Mixed Bacteria [1]; DBNPA 23 ppm AI alone, 4 hr @ 30° C.): −1.0 log
- CFU/ml Bacteria Log Reduction vs Control (Mixed Bacteria [1]; DBNPA 23 ppm AI alone, 24 hr @ 30° C.): −1.4 log
- MIC Values ALONE (Mixed Bacteria [2]; 1/10 TSB): 45 ppm AI
- MIC Values ALONE (Mixed Bacteria [2]; M9G + 0.1% yeast extract): 45 ppm AI

Structure (SMILES): Cn1sccc1=O [MI, 2-methyl-4-isothiazolin-3-one]
- Minimum Effective Concentration ALONE (Mixed Bacteria [1]; 24 hr): 300 ppm AI
- Minimum Effective Concentration ALONE (Mixed Bacteria [1]; 48 hr): 300 ppm AI
- Minimum Effective Concentration ALONE (Mixed Bacteria [1]; 72 hr): 300 ppm AI
- CFU/ml Bacteria Log Reduction vs Control (Mixed Bacteria [1]; MI 25 ppm AI alone, 30 min @ 30° C.): −0.3 log
- CFU/ml Bacteria Log Reduction vs Control (Mixed Bacteria [1]; MI 25 ppm AI alone, 1 hr @ 30° C.): 0.0 log
- CFU/ml Bacteria Log Reduction vs Control (Mixed Bacteria [1]; MI 25 ppm AI alone, 4 hr @ 30° C.): 0.2 log
- CFU/ml Bacteria Log Reduction vs Control (Mixed Bacteria [1]; MI 25 ppm AI alone, 24 hr @ 30° C.): −1.3 log
- CFU/ml Bacteria Log Reduction vs Control (Mixed Bacteria [1]; MI 25 ppm AI alone, 48 hr @ 30° C.): −2.0 log
- CFU/ml Bacteria Log Reduction vs Control (Mixed Bacteria [1]; MI 50 ppm AI alone, 30 min @ 30° C.): 0.4 log
- CFU/ml Bacteria Log Reduction vs Control (Mixed Bacteria [1]; MI 50 ppm AI alone, 1 hr @ 30° C.): 0.2 log
- CFU/ml Bacteria Log Reduction vs Control (Mixed Bacteria [1]; MI 50 ppm AI alone, 4 hr @ 30° C.): 0.4 log
- CFU/ml Bacteria Log Reduction vs Control (Mixed Bacteria [1]; MI 50 ppm AI alone, 24 hr @ 30° C.): −0.6 log
- CFU/ml Bacteria Log Reduction vs Control (Mixed Bacteria [1]; MI 50 ppm AI alone, 48 hr @ 30° C.): −1.6 log
- CFU/ml Bacteria Log Reduction vs Control (Mixed Bacteria [1]; MI 75 ppm AI alone, 30 min @ 30° C.): 0.2 log
- CFU/ml Bacteria Log Reduction vs Control (Mixed Bacteria [1]; MI 75 ppm AI alone, 1 hr @ 30° C.): 0.2 log
- CFU/ml Bacteria Log Reduction vs Control (Mixed Bacteria [1]; MI 75 ppm AI alone, 4 hr @ 30° C.): −0.3 log
- CFU/ml Bacteria Log Reduction vs Control (Mixed Bacteria [1]; MI 75 ppm AI alone, 24 hr @ 30° C.): 0.2 log
- CFU/ml Bacteria Log Reduction vs Control (Mixed Bacteria [1]; MI 75 ppm AI alone, 48 hr @ 30° C.): −2.0 log
- CFU/ml Bacteria Log Reduction vs Control (Mixed Bacteria [1]; MI 100 ppm AI alone, 168 @ 30° C.): −2.8 log
- CFU/ml Bacteria Log Reduction vs Control (Mixed Bacteria [1]; MI 100 ppm AI alone, 30 min @ 30° C.): 0.4 log
- CFU/ml Bacteria Log Reduction vs Control (Mixed Bacteria [1]; MI 100 ppm AI alone, 1 hr @ 30° C.): 0.6 log
- CFU/ml Bacteria Log Reduction vs Control (Mixed Bacteria [1]; MI 100 ppm AI alone, 4 hr @ 30° C.): 0.2 log
- CFU/ml Bacteria Log Reduction vs Control (Mixed Bacteria [1]; MI 100 ppm AI alone, 24 hr @ 30° C.): 0.8 log
- CFU/ml Bacteria Log Reduction vs Control (Mixed Bacteria [1]; MI 100 ppm AI alone, 48 hr @ 30° C.): 1.7 log
- CFU/ml Bacteria Log Reduction vs Control (Mixed Bacteria [1]; MI 100 ppm AI alone, 72 hr @ 30° C.): 0.0 log
- CFU/ml Bacteria Log Reduction vs Control (Mixed Bacteria [1]; MI 150 ppm AI alone, 168 @ 30° C.): −2.0 log
- CFU/ml Bacteria Log Reduction vs Control (Mixed Bacteria [1]; MI 150 ppm AI alone, 30 min @ 30° C.): 0.6 log
- CFU/ml Bacteria Log Reduction vs Control (Mixed Bacteria [1]; MI 150 ppm AI alone, 1 hr @ 30° C.): 0.2 log
- CFU/ml Bacteria Log Reduction vs Control (Mixed Bacteria [1]; MI 150 ppm AI alone, 4 hr @ 30° C.): 0.0 log
- CFU/ml Bacteria Log Reduction vs Control (Mixed Bacteria [1]; MI 150 ppm AI alone, 24 hr @ 30° C.): −0.2 log
- CFU/ml Bacteria Log Reduction vs Control (Mixed Bacteria [1]; MI 150 ppm AI alone, 48 hr @ 30° C.): 1.7 log
- CFU/ml Bacteria Log Reduction vs Control (Mixed Bacteria [1]; MI 150 ppm AI alone, 72 hr @ 30° C.): 0.4 log
- MIC Values ALONE (Mixed Bacteria [2]; 1/10 TSB): 38 ppm AI
- MIC Values ALONE (Mixed Bacteria [2]; M9G + 0.1% yeast extract): 38 ppm AI
